Data from patent US8318815B2, “Method for treatment of tumors using nordihydroguaiaretic acid derivatives” (priority 1999, dated 2012).

Columns and labels:
[1] = tested on: C3 cells
Procedure: (§1) FIG. 9. […] (a-d) C3, CEM-T4, C33a, and TC-1 cells were treated with different concentrations of M4N. The number of cells present at the initiation of the experiment is indicated as Day 0. After three days the number of viable cells were counted and plotted versus the M4N concentration. […] After 3 days, one-half of the M4N treated cells were given fresh media containing only 1% DMSO (M-D), while the rest of the cells were given fresh media with the same conditions (second media change). The cells were counted daily and plotted versus the time of treatment.
HPV-16 transformed immortal mouse epithelial cells (C3 cells) were plated at a density of 10^5 cells per vial.
The effect on C3 growth following removal of M4N from the medium was also examined. C3 cells were plated at a density of 10^4 cells per vial. […] The other ⅔ of the cell vials were washed and replaced with the same media administered before.
This hypothesis was tested by examining the antiproliferative effect of M4N on a number of different cell lines.

[2] = tested on: cellular gene expression in C3 cells; experiment: 9600 gene array hybridization of C3 cells; type: cell-based, mouse; details: 72 hrs
Description: Gene expression with 9600 gene arrays was studied (FIG. 5). Five micrograms each of poly A^+RNA from 72 hrs. M4N ([…]) treated (C3 M4N) and non-treated (C3 DMSO) was used in a pair of human 9600 gene array hybridization study according to the procedure described in Genomics 51, 313-324 1998. The hybridization image was captured by a color video camera with a Nikon 55 mm AF micro Niko lens and digitized by a Macintosh LC630 computer. Such detection via enzyme substrate reaction of color-forming enzymes in either single or dual-color mode is reproducible and extremely sensitive (can detect <5 copies of transcript per cell with RNAs from 10^7 cells).
[…]. Image files in TIFF format and data files in MS excel format are kept on ZIP diskette. Gene names and clone ID numbers are available for obtaining Image clones for future northern blot confirmation.

[3] = tested on: C3 tumor; experiment: Histopathology of excised C3 tumors; type: in vivo, mice; details: hematoxylin and eosin sections
Procedure: Drug treated (M4N) and DMSO vehicle-treated or untreated tumors (CON) from two groups of mice were prepared for histopathology examination. The excised tumors were immediately fixed and then stored in 4% formaldehyde in phosphate buffered saline. The fixed tissue was then dehydrated through a series of graded alcohols and xylene and embedded in paraffin. The paraffin tissue blocks were thin sectioned and stained for microscopy with hematoxylin and eosin. […] They show the high nuclear/cytoplasmic ratio, pleomorphic nuclear changes, high mitotic figures, spindle like sarcoma shape, and infiltration into the surrounding tissue characteristic of cancer cells.

[4] = tested on: HSV-1; experiment: HSV-1 skin infection in guinea pig, topical treatment; type: in vivo
Procedure: The drug M4N was also tested in inhibition of HSV-1 replication in skin infections in guinea pigs. Guinea pig skin was pinched with needles and HSV-1 […] was applied topically to infect each pricked area. M4N was then applied to the pricked infected area following infection daily for 6 days.
Six areas of bared back skin of a guinea pig were punched sterilely with a 5=DIN needle. Two areas were infected with HSV-1 (HSV-C, culture supernatant, or isolated HSV in saline, HSV-SC). The other four areas were infected with HSV-SC.

[5] = Initial animal toxicity studies of M4N in mice; type: in vivo
[6] = tested on: TC-1 cell line; experiment: TC-1 cell growth; details: TC-1 cells
Procedure: as §1

[7] = tested on: C33a cell line; experiment: C33a cell growth; type: cell-based, human; details: three days
Procedure: as §1

[8] = tested on: CEM-T4 line; experiment: CEM-T4 cell growth; type: cell-based, human; details: three days
Procedure: as §1

[9] = tested on: survivin gene expression; experiment: RT-PCR analysis of survivin gene expression in C3 cells; type: cell-based, mouse; details: 40 μM
Procedure: FIG. 17. RT-PCR Analysis of Survivin Gene Expression. […] Bottom: the corresponding GAPDH controls. Band intensities were quantitated with Scion Image. (b) Survivin RT-PCR product signals were normalized to those of the GAPDH controls and plotted.
M4N Treatment. C3 cells (5×10^6) were seeded in 150-mm plates and allowed to attach to the plates. Twenty-four hours after seeding, cultures were washed twice with PBS and treated with M4N dissolved in 1% DMSO mixed with the growth medium.
RT-PCR analysis. mRNA was isolated by the guanidinium thiocyanate and phenol method from the cultured cells as described in Molecular Cloning (40). […] The c-DNA products obtained were amplified under the PCR conditions: […], 60° C. for 55 seconds, and 72° C. for 1 minute for 30 cycles.

[10] = tested on: CDC2 mRNA; experiment: Northern blot of CDC2 mRNA in C3 cells; details: 40 μM
[11] = tested on: caspase-3; details: C3 cells, 72 hours
[12] = tested on: C3 cells; experiment: Cell cycle DNA content by propidium iodide flow cytometry, C3; details: C3, 72 hours
Description: (§2) The cells were trypsinized, fixed with ethanol, stained with propidium iodide, and were subsequently analyzed by flow cytommetry. […] The indicated stages of the cell cycle are labeled and correspond to the relative cellular DNA compliment as determined by staining intensity.

[13] = tested on: SP1-regulated HPV E6/E7 promoter; experiment: HPV16 LCR (P97 promoter) luciferase reporter assay in C33A cells; details: thirty hours after drug treatment
[14] = tested on: CEM-T4 cells; experiment: Cell cycle DNA content by propidium iodide flow cytometry, CEM-T4; details: CEMT4, 72 hours
Description: as §2

COc1ccc(C[C@@H](C)[C@@H](C)Cc2ccc(OC)c(OC)c2)cc1OC [M4N, tetra-O-methylnordihydroguaiaretic acid]
rate of cell growth following the change to drug-free media ([1]; 40 μM for 73 hours, then media with 1% DMSO only): not notably increased | fraction of viable cells compared to the total cell count ([1]; 40 μM in 1% DMSO): remained constant | growth and division of C3 cells ([1]; 40 μM in 1% DMSO, versus DMSO only control): markedly reduced | "threshold" concentration above which the percentage of viable cells decreases precipitously ([1]; C3 cells): 60 µM | cell death after prolonged exposure ([1]; C3 cells, eight days, 40 μM): no increase in cell death | viable fraction of arrested cells ([1]; the four cell lines treated (C3, CEM-T4, C33a, TC-1), up to the threshold concentration): > 95% | Cyclin-dependent kinase 7 expression, Treated ([2]; 40 μM, Untreated = 100%): (5%) | Cysteine protease expression, Treated ([2]; 40 μM, Untreated = 100%): (7%) | Human TNF-related Apoptosis AP02 expression, Treated ([2]; 40 μM, Untreated = 100%): (3%) | Human cytokine receptor expression, Treated ([2]; 40 μM, Untreated = 100%): (2%) | Proliferating cell nuclear antigen, PCNA expression, Treated ([2]; 40 μM, Untreated = 100%): (1%) | Increase: Apoptosis (APO-1) antigen ([2]; 40 μm, vs C3 DMSO): (100X) | Increase: Cyclin-dependent kinase inhibitor ([2]; 40 μm, vs C3 DMSO): (100X) | Increase: Death Domain Three DR3 ([2]; 40 μm, vs C3 DMSO): (100X) | Increase: Human Map Kinase ([2]; 40 μm, vs C3 DMSO): (40X) | Increase: Ras-related protein RAP-1 ([2]; 40 μm, vs C3 DMSO): (60X) | histopathology of treated tumors [3]: significant necrosis | blisters in HSV-1 infected skin areas at day 6 ([4]; 30 μl of 60 mg/ml in DMSO, five times per day for six days): no blisters | shedding of the virus ([4]; 4 days after the drug treatment): no shedding of the virus | non-toxic to mice at concentrations as high as ([5]; given either subcutaneously or by IV): ≤ 375 mg/kg | non-toxic to mice at concentrations as high as ([5]; given intraperitoneally): ≤ 300 mg/kg | "threshold" concentration above which the percentage of viable cells decreases precipitously [6]: 40 µM | growth of C33a cell line [7]: blocked | growth of CEM-T4 line [8]: blocked | reduction in survivin expression ([9]; 24 hours): 65% | reduction in survivin expression ([9]; 72 hours): 80% | amount of CDC2 mRNA ([10]; 24 hours): reduced | amount of CDC2 mRNA ([10]; 72 hours): nearly eliminated | caspase-3 cleavage [11]: caspase-3 activation | cells showing G2/M DNA content [12]: > 90% | Sp1 regulated transcription initiation at the HPV E6/E7 promoter (specific luciferase activity) [13]: dramatically reduces | cells showing G2/M DNA content [14]: > 90%
